Source: US9029337B2, “Modulation of factor 7 expression” (Isis Pharmaceuticals, Inc., priority 2007, dated 2015)
Strand notation (5' to 3'): a small letter for the sugar, then the base; units joined by * are phosphorothioate-linked, units joined directly phosphodiester-linked; [ ] holds rarer units or linkages, { } end groups; capitals alone tell only the bases. e = 2'-O-(2-methoxyethyl) (MOE); [5mC] = 5-methylcytosine; d = 2'-deoxy (DNA)

The substances below were run on human Factor 7 mRNA (assay: Antisense inhibition of human Factor 7 mRNA in HepB3 cells, 50 nM antisense oligonucleotide, lipofectin). Details: Table 1, 50 nM, lipofectin, approximately 24 hours, relative to untreated control cells.
Type: cell-based
Summary of the method: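 HepB3 cells were transfected by lipofectin with 50 nM antisense oligonucleotide and harvested after about 24 h. Factor 7 mRNA was measured by real-time RT-PCR (primer probe set RTS 2927 in some runs), normalized to RIBOGREEN total RNA, and reported as percent inhibition versus untreated control.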

Substance	% Inhibition [%]
407618 (antisense eG*eT*eA*eT*eT*dT*dT*dT*d[5mC]*d[5mC]*dA*d[5mC]*dA*dT*dG*eG*eA*eT*eA*eT) [compound 407618]	42
407639 (antisense eT*eT*eT*eG*e[5mC]*dA*dG*d[5mC]*d[5mC]*dA*d[5mC]*dT*d[5mC]*dG*dA*eT*eG*eT*eA*e[5mC]) [compound 407639]	76
407619 (antisense eA*eG*eA*eA*eT*dA*dG*dG*dT*dA*dT*dT*dT*dT*dT*e[5mC]*e[5mC]*eA*e[5mC]*eA) [compound 407619]	64
407650 (antisense e[5mC]*e[5mC]*eA*eT*eG*dT*dG*dA*dG*dG*dG*dT*dT*d[5mC]*dA*eT*eT*eT*e[5mC]*eA) [compound 407650]	39
407905 (antisense e[5mC]*e[5mC]*eA*eG*eT*dT*d[5mC]*dT*dT*dG*dA*dT*dT*dT*dT*eG*eT*e[5mC]*eG*eA) [compound 407905]	40
407890 (antisense e[5mC]*eA*eG*eG*eG*dA*dG*d[5mC]*d[5mC]*d[5mC]*dG*dG*d[5mC]*d[5mC]*dG*e[5mC]*eA*eG*e[5mC]*eT) [compound 407890]	60
407963 (antisense eA*eG*eA*eG*e[5mC]*dA*dG*dG*dG*dT*dG*d[5mC]*d[5mC]*dT*dT*eG*eG*eA*eA*eG) [compound 407963]	33
407906 (antisense eA*e[5mC]*e[5mC]*eA*e[5mC]*dG*dG*dG*d[5mC]*dT*dG*dG*dT*dG*d[5mC]*eA*eG*eG*e[5mC]*eG) [compound 407906]	4
407926 (antisense e[5mC]*e[5mC]*eA*eG*eG*dA*d[5mC]*dA*dA*d[5mC]*d[5mC]*dT*dT*dG*dG*e[5mC]*eA*e[5mC]*eT*e[5mC]) [compound 407926]	79
407921 (antisense e[5mC]*e[5mC]*eA*e[5mC]*eA*dG*dG*d[5mC]*d[5mC]*dA*dG*dG*dG*d[5mC]*dT*eG*e[5mC]*eT*eG*eG) [compound 407921]	65
407654 (antisense e[5mC]*e[5mC]*eA*e[5mC]*eT*dG*d[5mC]*dA*dG*d[5mC]*d[5mC]*dA*dG*dG*dG*e[5mC]*e[5mC]*eT*eG*eG) [compound 407654]	34
407598 (antisense e[5mC]*e[5mC]*eA*eT*eG*dA*dT*dG*dA*dA*dA*dT*d[5mC]*dT*d[5mC]*eT*eG*e[5mC]*eA*eG) [compound 407598]	72
407941 (antisense eG*eA*eG*eA*e[5mC]*dG*d[5mC]*dA*dG*d[5mC]*d[5mC]*dG*dT*dT*dT*eA*eT*eT*eG*eT) [compound 407941]	65
407923 (antisense e[5mC]*eA*eG*eG*eA*d[5mC]*dA*dG*dT*dT*d[5mC]*dG*dA*d[5mC]*dG*e[5mC]*eA*eG*e[5mC]*e[5mC]) [compound 407923]	76
407635 (antisense eT*eG*eG*e[5mC]*e[5mC]*d[5mC]*d[5mC]*dA*dG*d[5mC]*dT*dG*dA*d[5mC]*dG*eA*eT*eG*e[5mC]*e[5mC]) [compound 407635]	64

Same assay, conditions: Table 6, 50 nM, lipofectin, approximately 24 hours

Substance	% Inhibition [%]
422273 (antisense eT*eA*d[5mC]*dT*dG*dA*dG*d[5mC]*dG*d[5mC]*dG*dG*dA*dA*dG*eA*eA*eG*eG*eG) [compound 422273]	0
422194 (antisense e[5mC]*eT*eG*dA*dG*d[5mC]*dG*d[5mC]*dG*dG*dA*dA*dG*dA*dA*dG*dG*eG*eA*e[5mC]) [compound 422194]	11
422269 (antisense eG*eA*dG*d[5mC]*dG*d[5mC]*dG*dG*dA*dA*dG*dA*dA*dG*dG*eG*eA*e[5mC]*eG*eG) [compound 422269]	27
422192 (antisense eG*eA*eG*d[5mC]*dG*d[5mC]*dG*dG*dA*dA*dG*dA*dA*dG*dG*dG*dA*e[5mC]*eG*eG) [compound 422192]	27
422199 (antisense eG*eG*eT*dT*dA*d[5mC]*dT*dG*dA*dG*d[5mC]*dG*d[5mC]*dG*dG*dA*dA*eG*eA*eA) [compound 422199]	65

Same assay, conditions: gapmers targeted to nucleobases 4868 to 4899 of SEQ ID NO: 1, Table 8

Substance	% Inhibition of human Factor 7 mRNA levels [%]
422291 (antisense eT*eT*d[5mC]*dT*dG*d[5mC]*dA*dG*dG*dA*dG*d[5mC]*dG*dG*d[5mC]*e[5mC]*eT*eA*eA*eA) [compound 422291]	53
422301 (antisense eG*eG*dA*dG*d[5mC]*d[5mC]*d[5mC]*dG*dA*dG*dT*dT*d[5mC]*dT*dG*e[5mC]*eA*eG*eG*eA) [compound 422301]	67
422213 (antisense eT*e[5mC]*eT*dG*d[5mC]*dA*dG*dG*dA*dG*d[5mC]*dG*dG*d[5mC]*d[5mC]*dT*dA*eA*eA*eT) [compound 422213]	67
422225 (antisense eA*eG*eG*dA*dG*d[5mC]*d[5mC]*d[5mC]*dG*dA*dG*dT*dT*d[5mC]*dT*dG*d[5mC]*eA*eG*eG) [compound 422225]	56

Same assay, conditions: lipofectin, 50 nM antisense oligonucleotide, approximately 24 hours, Factor 7 mRNA by real-time RT-PCR (RTS 2927), relative to untreated control

Substance	% Inhibition [%]
416513 (antisense e[5mC]*eT*eG*eA*eT*dG*dT*dG*dA*dA*dA*dA*d[5mC]*d[5mC]*dG*eG*e[5mC]*eA*eT*eG) [compound 416513]	37
416452 (antisense e[5mC]*e[5mC]*eA*eA*e[5mC]*dA*dA*d[5mC]*dA*dG*dG*dA*d[5mC]*d[5mC]*dT*eG*e[5mC]*e[5mC]*eA*eT) [compound 416452]	19
416565 (antisense e[5mC]*eA*eG*eG*eA*dT*dG*d[5mC]*dT*d[5mC]*dA*dT*dG*dG*d[5mC]*eA*eG*eA*e[5mC]*eA) [compound 416565]	0
416462 (antisense eG*eG*e[5mC]*eA*eG*dT*d[5mC]*d[5mC]*dT*dG*dG*dG*dT*d[5mC]*dA*eT*e[5mC]*eA*eG*e[5mC]) [compound 416462]	60
416465 (antisense e[5mC]*eA*e[5mC]*eT*eG*dT*d[5mC]*d[5mC]*d[5mC]*d[5mC]*d[5mC]*dT*dT*dG*d[5mC]*eA*eG*eG*eA*eG) [compound 416465]	51
416544 (antisense eA*eT*e[5mC]*e[5mC]*e[5mC]*dA*dT*dT*dT*dT*d[5mC]*d[5mC]*d[5mC]*dA*dG*eG*eA*eG*e[5mC]*e[5mC]) [compound 416544]	58
416538 (antisense e[5mC]*eG*eT*eG*eG*dA*d[5mC]*dT*dG*dA*dT*d[5mC]*d[5mC]*dA*dA*eA*eG*eG*eA*e[5mC]) [compound 416538]	46
416528 (antisense eT*eG*eA*eT*eA*dA*dA*dA*d[5mC]*d[5mC]*dT*d[5mC]*dT*dG*dG*eA*e[5mC]*eA*e[5mC]*e[5mC]) [compound 416528]	10
416424 (antisense eG*eA*eG*eA*e[5mC]*d[5mC]*dA*dT*dG*dA*dT*dG*dA*dA*dA*eT*e[5mC]*eT*e[5mC]*eT) [compound 416424]	27
416512 (antisense eG*eA*e[5mC]*eG*eA*d[5mC]*d[5mC]*dT*dT*dT*dG*d[5mC]*dT*dG*dG*eG*eA*eG*eG*eA) [compound 416512]	43
416478 (antisense eG*eT*e[5mC]*eT*e[5mC]*d[5mC]*dA*dG*d[5mC]*dA*dA*dT*dG*dA*dA*eG*eG*e[5mC]*eA*eG) [compound 416478]	44

Same assay, conditions: oligonucleotides targeted to nucleobases 11830 to 11869 of SEQ ID NO: 1 (Table 9)

Substance	% Inhibition (human Factor 7 mRNA levels) [%]
422162 (antisense eG*eA*e[5mC]*dA*dA*dT*dG*dG*dT*d[5mC]*dA*dG*dG*dG*d[5mC]*dT*dG*eG*eT*eT) [compound 422162]	59
422169 (antisense e[5mC]*eT*eG*dA*dG*dG*dA*dG*dA*d[5mC]*dA*dA*dT*dG*dG*dT*d[5mC]*eA*eG*eG) [compound 422169]	56
422155 (antisense eG*eT*e[5mC]*dA*dG*dG*dG*d[5mC]*dT*dG*dG*dT*dT*dT*dT*dG*dG*eA*eG*eG) [compound 422155]	34

Same assay, conditions: oligonucleotides targeted to nucleobases 13760 to 13789 of SEQ ID NO: 1 (Table 10)

Substance	% Inhibition (human Factor 7 mRNA levels) [%]
422179 (antisense e[5mC]*eA*e[5mC]*d[5mC]*d[5mC]*dG*d[5mC]*d[5mC]*dG*dG*d[5mC]*dT*d[5mC]*dT*dG*d[5mC]*dT*e[5mC]*eA*eT) [compound 422179]	43
422109 (antisense e[5mC]*e[5mC]*e[5mC]*eG*e[5mC]*d[5mC]*dG*dG*d[5mC]*dT*d[5mC]*dT*dG*d[5mC]*dT*e[5mC]*eA*eT*e[5mC]*e[5mC]) [compound 422109]	68
422259 (antisense e[5mC]*eG*d[5mC]*d[5mC]*dA*d[5mC]*d[5mC]*d[5mC]*dG*d[5mC]*d[5mC]*dG*dG*d[5mC]*dT*e[5mC]*eT*eG*e[5mC]*eT) [compound 422259]	61

Same assay, conditions: oligonucleotides targeted to nucleobases 14707 to 14732 of SEQ ID NO: 1 (Table 11)

Substance	% Inhibition (human Factor 7 mRNA levels) [%]
422203 (antisense e[5mC]*eA*eG*d[5mC]*d[5mC]*dT*dG*dA*dG*dG*d[5mC]*d[5mC]*dA*dG*d[5mC]*dA*dG*eA*eT*e[5mC]) [compound 422203]	52
422205 (antisense eA*eG*e[5mC]*dA*dG*d[5mC]*d[5mC]*dT*dG*dA*dG*dG*d[5mC]*d[5mC]*dA*dG*d[5mC]*eA*eG*eA) [compound 422205]	63
422204 (antisense eG*e[5mC]*eA*dG*d[5mC]*d[5mC]*dT*dG*dA*dG*dG*d[5mC]*d[5mC]*dA*dG*d[5mC]*dA*eG*eA*eT) [compound 422204]	72
422131 (antisense eA*eG*e[5mC]*e[5mC]*eT*dG*dA*dG*dG*d[5mC]*d[5mC]*dA*dG*d[5mC]*dA*eG*eA*eT*e[5mC]*eA) [compound 422131]	68
